Key:
[1] = target: Histamine H1 receptor (Homo sapiens) (UniProt P35367); assay: Binding affinity to histamine H1 receptor (unknown origin) at 10 uM
[2] = target: Alpha-2A adrenergic receptor (Homo sapiens, UniProt P08913); assay: Binding affinity to alpha2A adrenoceptor (unknown origin)
[3] = target: Alpha-1A adrenergic receptor (Homo sapiens) (UniProt P35348); assay: Binding affinity to alpha1A adrenoceptor (unknown origin) at 10 uM
[4] = target: Sodium-dependent noradrenaline transporter (Homo sapiens) (UniProt P23975); assay: Binding affinity to NET (unknown origin) at 10 uM
[5] = target: Kappa-type opioid receptor (Homo sapiens) (UniProt P41145); assay: Binding affinity to KOR (unknown origin) at 10 uM
[6] = target: Muscarinic acetylcholine receptor M4 (Homo sapiens) (UniProt P08173); assay: Binding affinity to muscarinic M4 receptor (unknown origin) at 10 uM
[7] = target: Beta-2 adrenergic receptor (Homo sapiens) (UniProt P07550); assay: Binding affinity to beta2 adrenoceptor (unknown origin) at 10 uM
[8] = target: Alpha-1D adrenergic receptor (Homo sapiens) (UniProt P25100); assay: Binding affinity to alpha1D adrenoceptor (unknown origin) at 10 uM
[9] = target: Cannabinoid receptor 2 (Homo sapiens) (UniProt P34972); assay: Binding affinity to CB2 receptor (unknown origin) at 10 uM
[10] = target: 5-hydroxytryptamine receptor 1B (Homo sapiens, UniProt P28222); assay: Displacement of [3H]GR125743 from 5HT1B receptor (unknown origin) at 10 uM
[11] = target: Alpha-2C adrenergic receptor (Homo sapiens, UniProt P18825); assay: Binding affinity to alpha2C adrenoceptor (unknown origin)
[12] = target: Muscarinic acetylcholine receptor M2 (Homo sapiens) (UniProt P08172); assay: Binding affinity to muscarinic M2 receptor (unknown origin) at 10 uM
Rattus norvegicus = organism: Rattus norvegicus; assay: Binding affinity to benzodiazepine receptor in rat brain; assay type: tissue-based; settings: concentration not given here
[13] = target: Sodium-dependent serotonin transporter (Homo sapiens) (UniProt P31645); assay: Binding affinity to SERT (unknown origin) at 10 uM
[14] = target: D(1A) dopamine receptor (Homo sapiens) (UniProt P21728); assay: Binding affinity to dopamine D1 receptor (unknown origin) at 10 uM
[15] = target: Beta-3 adrenergic receptor (Homo sapiens) (UniProt P13945); assay: Binding affinity to beta3 adrenoceptor (unknown origin) at 10 uM
[16] = target: Muscarinic acetylcholine receptor M1 (Homo sapiens, UniProt P11229); assay: Binding affinity to muscarinic M1 receptor (unknown origin)
[17] = target: 5-hydroxytryptamine receptor 2A (Homo sapiens) (UniProt P28223); assay: Displacement of [3H]ketanserin from 5HT2A receptor (unknown origin) at 10 uM
[18] = target: 5-hydroxytryptamine receptor 7 (Homo sapiens) (UniProt P34969); assay: Displacement of [3H]LSD from 5HT7 receptor (unknown origin) at 10 uM
[19] = target: D(3) dopamine receptor (Homo sapiens) (UniProt P35462); assay: Binding affinity to dopamine D3 receptor (unknown origin) at 10 uM
[20] = target: T1, 5-hydroxytryptamine receptor 2C (Homo sapiens) (UniProt P28335); assay: Displacement of [3H]mesulergine from 5HT2C receptor (unknown origin) at 10 uM
T1 sequence (whole entry): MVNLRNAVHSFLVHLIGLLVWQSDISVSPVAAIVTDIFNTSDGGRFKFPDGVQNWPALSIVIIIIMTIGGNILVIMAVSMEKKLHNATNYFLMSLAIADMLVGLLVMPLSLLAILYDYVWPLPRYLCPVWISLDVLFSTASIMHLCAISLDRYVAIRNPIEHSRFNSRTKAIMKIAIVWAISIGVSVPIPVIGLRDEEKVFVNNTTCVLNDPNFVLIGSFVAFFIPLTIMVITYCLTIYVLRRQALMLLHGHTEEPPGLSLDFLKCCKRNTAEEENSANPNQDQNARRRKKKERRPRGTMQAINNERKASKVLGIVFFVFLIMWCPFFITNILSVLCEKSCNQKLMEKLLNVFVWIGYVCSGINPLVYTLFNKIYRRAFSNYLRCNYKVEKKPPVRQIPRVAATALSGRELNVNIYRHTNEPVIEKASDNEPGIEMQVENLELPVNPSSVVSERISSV

[21] = target: Alpha-2B adrenergic receptor (Homo sapiens, UniProt P18089); assay: Binding affinity to alpha2B adrenoceptor (unknown origin)
Chain of Alpha-2B adrenergic receptor (P18089 whole entry): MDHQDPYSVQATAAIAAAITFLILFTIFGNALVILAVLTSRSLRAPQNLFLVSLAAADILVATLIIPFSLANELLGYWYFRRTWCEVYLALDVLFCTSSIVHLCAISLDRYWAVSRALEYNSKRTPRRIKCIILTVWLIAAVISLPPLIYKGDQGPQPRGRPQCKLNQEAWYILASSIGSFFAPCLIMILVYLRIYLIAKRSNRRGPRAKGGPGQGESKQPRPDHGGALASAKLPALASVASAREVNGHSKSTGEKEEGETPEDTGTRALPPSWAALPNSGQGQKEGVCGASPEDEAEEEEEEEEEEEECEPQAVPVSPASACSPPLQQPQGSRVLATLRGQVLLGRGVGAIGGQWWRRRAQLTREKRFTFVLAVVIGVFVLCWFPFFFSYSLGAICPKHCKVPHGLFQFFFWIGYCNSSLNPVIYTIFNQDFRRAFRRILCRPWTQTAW

Chain of Alpha-2A adrenergic receptor (P08913 whole entry): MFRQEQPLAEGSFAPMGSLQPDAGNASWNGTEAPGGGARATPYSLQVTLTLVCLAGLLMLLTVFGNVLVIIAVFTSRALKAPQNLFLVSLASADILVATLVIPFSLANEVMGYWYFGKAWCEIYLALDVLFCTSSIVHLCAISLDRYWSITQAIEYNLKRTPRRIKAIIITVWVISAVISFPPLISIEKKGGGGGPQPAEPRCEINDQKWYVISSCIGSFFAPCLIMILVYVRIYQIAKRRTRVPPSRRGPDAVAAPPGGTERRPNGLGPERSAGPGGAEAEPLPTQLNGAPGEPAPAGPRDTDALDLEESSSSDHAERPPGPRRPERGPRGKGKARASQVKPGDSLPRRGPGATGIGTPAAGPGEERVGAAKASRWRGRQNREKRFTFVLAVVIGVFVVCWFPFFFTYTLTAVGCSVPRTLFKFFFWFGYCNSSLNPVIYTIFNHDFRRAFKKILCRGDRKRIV
Chain of Beta-3 adrenergic receptor (Homo sapiens) (P13945 whole entry, looked up): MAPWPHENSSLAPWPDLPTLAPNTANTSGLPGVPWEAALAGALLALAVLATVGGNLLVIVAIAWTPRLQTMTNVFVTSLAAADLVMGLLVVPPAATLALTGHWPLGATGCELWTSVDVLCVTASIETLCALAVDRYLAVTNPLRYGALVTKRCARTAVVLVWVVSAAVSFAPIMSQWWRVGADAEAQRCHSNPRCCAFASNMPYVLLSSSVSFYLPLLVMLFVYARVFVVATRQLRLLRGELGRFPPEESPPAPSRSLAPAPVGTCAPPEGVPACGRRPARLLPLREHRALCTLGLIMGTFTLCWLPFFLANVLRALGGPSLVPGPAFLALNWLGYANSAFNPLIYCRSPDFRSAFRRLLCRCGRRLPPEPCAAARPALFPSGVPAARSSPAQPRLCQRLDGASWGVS
Chain of Alpha-2C adrenergic receptor (P18825 whole entry): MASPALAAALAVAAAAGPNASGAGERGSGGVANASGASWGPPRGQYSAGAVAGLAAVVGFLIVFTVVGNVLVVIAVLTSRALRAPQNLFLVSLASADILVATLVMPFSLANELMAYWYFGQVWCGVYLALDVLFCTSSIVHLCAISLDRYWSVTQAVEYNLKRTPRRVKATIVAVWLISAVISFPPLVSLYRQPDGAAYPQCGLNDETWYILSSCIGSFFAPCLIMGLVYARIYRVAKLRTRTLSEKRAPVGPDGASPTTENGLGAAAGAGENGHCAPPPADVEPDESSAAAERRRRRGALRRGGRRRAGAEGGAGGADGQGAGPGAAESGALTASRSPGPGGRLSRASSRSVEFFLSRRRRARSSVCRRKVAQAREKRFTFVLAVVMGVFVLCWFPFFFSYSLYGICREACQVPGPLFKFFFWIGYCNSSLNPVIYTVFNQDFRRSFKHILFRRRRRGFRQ
Chain of Sodium-dependent serotonin transporter (Homo sapiens) (P31645 whole entry, looked up): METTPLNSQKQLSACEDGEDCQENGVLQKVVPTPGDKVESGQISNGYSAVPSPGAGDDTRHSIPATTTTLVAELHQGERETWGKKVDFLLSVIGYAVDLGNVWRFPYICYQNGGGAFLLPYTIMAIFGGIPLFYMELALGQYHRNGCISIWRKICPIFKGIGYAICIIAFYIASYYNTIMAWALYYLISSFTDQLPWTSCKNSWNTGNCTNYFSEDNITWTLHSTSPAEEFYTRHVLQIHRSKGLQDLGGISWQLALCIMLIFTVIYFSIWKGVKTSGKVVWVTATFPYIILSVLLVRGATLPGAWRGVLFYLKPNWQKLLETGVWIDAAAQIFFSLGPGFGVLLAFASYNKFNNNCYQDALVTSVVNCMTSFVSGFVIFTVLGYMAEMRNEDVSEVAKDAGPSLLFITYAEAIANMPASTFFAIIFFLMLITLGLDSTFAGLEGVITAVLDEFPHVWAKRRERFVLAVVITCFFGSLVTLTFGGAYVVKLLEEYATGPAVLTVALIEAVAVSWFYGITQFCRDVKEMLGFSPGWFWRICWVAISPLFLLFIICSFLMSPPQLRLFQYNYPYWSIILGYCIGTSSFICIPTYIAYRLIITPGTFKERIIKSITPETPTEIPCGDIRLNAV
Chain of Kappa-type opioid receptor (Homo sapiens) (P41145 whole entry): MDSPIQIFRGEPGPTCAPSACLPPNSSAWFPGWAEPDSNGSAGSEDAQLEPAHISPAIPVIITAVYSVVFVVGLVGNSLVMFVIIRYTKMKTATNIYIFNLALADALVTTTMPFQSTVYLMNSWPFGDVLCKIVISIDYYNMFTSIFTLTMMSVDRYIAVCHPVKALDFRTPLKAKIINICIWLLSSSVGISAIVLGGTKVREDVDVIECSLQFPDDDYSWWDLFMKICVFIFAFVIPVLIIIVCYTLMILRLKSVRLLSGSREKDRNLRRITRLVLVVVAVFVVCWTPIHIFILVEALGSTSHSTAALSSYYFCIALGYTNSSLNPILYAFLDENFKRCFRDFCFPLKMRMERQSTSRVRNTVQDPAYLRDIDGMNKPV
Chain of Muscarinic acetylcholine receptor M4 (Homo sapiens) (P08173 whole entry): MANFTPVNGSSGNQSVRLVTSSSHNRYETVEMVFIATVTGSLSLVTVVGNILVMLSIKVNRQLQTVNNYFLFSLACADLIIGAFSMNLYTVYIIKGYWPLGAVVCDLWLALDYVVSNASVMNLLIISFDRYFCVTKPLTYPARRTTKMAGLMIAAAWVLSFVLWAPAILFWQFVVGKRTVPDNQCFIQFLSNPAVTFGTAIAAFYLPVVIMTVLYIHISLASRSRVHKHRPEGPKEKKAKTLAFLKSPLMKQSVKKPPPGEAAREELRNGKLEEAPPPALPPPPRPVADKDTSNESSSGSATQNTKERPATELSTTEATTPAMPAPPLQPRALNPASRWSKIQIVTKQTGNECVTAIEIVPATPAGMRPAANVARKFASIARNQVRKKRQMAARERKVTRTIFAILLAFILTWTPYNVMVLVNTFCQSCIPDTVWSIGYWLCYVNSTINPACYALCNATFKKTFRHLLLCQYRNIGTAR
Chain of Muscarinic acetylcholine receptor M2 (Homo sapiens) (P08172 whole entry): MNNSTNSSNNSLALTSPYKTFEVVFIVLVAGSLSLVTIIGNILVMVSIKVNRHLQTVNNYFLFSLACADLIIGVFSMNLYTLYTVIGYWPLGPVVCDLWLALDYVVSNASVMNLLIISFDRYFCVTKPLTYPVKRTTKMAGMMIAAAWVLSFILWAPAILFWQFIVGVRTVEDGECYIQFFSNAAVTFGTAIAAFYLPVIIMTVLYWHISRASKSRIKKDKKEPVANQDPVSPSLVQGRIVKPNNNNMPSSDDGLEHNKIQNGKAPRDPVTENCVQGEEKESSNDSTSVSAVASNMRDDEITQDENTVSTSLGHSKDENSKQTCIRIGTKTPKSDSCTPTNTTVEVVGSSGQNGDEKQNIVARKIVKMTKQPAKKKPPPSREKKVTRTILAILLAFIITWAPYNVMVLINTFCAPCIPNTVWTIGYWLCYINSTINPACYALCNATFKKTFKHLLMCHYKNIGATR
Chain of Cannabinoid receptor 2 (Homo sapiens) (P34972 whole entry): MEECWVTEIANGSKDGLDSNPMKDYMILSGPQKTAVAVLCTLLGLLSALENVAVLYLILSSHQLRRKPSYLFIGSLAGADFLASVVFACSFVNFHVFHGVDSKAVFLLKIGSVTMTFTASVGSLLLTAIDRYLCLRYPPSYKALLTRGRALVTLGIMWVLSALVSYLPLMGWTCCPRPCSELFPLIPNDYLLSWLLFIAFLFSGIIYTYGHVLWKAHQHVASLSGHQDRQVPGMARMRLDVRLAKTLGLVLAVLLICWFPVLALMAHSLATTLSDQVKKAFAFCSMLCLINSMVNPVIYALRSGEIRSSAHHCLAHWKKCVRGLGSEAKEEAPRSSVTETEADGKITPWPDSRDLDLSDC
Chain of Beta-2 adrenergic receptor (Homo sapiens) (P07550 whole entry, looked up): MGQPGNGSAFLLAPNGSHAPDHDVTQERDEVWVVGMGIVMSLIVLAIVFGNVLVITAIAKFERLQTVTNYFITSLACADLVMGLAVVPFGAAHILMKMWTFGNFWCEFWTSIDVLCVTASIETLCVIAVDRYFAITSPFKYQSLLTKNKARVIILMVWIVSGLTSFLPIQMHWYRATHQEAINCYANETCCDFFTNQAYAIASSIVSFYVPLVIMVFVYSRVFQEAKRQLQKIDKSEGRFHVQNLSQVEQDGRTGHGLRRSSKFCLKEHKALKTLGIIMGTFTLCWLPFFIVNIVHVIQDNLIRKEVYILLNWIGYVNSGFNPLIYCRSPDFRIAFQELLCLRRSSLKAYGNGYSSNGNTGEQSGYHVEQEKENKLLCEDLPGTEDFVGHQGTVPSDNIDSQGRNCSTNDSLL
Chain of Muscarinic acetylcholine receptor M1 (P11229 whole entry): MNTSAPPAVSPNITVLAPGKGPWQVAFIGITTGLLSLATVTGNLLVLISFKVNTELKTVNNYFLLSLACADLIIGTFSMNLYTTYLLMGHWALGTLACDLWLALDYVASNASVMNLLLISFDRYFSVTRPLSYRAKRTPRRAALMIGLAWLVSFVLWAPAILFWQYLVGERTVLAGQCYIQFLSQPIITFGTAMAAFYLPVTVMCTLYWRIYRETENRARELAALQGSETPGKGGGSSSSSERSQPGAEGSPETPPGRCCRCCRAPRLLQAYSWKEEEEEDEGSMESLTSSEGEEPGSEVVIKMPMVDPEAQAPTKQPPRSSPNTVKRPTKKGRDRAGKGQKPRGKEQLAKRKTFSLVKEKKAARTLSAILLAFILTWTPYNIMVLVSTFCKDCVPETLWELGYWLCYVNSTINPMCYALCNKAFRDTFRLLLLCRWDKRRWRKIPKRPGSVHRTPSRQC

`COc1cc2c3c(c1OC)-c1cc4c(cc1CC3N(C)CC2c1ccccc1)OCO4` (configuration not stated) showed an inhibition [1] of less than 50%, a Ki [2] of 719 nM and an inhibition [3] of less than 50%. The inhibition [4] was less than 50%, the inhibition [5] was less than 50% and the inhibition [6] was less than 50%. The inhibition [7] was less than 50%, the inhibition [8] was less than 50% and the inhibition [9] was less than 50%. The inhibition [10] was 22.6%, the Ki [11] was 433 nM and the inhibition [12] was less than 50%. For the same molecule, the inhibition (Rattus norvegicus) was less than 50%, the inhibition [13] was less than 50% and the inhibition [14] was less than 50%. For the same molecule, the inhibition [15] was less than 50%, the Ki [16] was greater than 10000 nM and the inhibition [17] was 33.5%. The inhibition [18] was 36.1%, the inhibition [19] was less than 50% and the inhibition [20] was 31.9%. It also gave a Ki [21] of 3220 nM.
